The source made the active and inactive calls. The rule behind the calls is not given here.
Tests used:
Mus musculus [1] = organism: Mus musculus; experiment: Antiasthmatic activity in ovalbumin-sensitized BALB/c mouse allergy model assessed as reduction in lung aldehyde level compound treated at 4 g through inhalation prior to ovalbumin challenge; format: functional, organism-based
Mus musculus [2] = organism: Mus musculus; experiment: Antiasthmatic activity in ovalbumin-sensitized BALB/c mouse allergy model assessed as reduction in neutrophil count compound treated at 4 g through inhalation prior to ovalbumin challenge (reference value: 43.1 /mm3); format: functional
Mus musculus [3] = organism: Mus musculus; experiment: Antiasthmatic activity in ovalbumin-sensitized BALB/c mouse allergy model assessed as reduction in sub-epithelial fibrosis compound treated at 4 g through inhalation prior to ovalbumin challenge by hematoxylin eosin staining method relative to control; format: functional; design: scale not given: the % may be the effect or the level left
Mus musculus [4] = organism: Mus musculus; experiment: Antiasthmatic activity in ovalbumin-sensitized BALB/c mouse allergy model assessed as reduction in occlusion of the airway diameter by mucus compound treated at 4 g through inhalation prior to ovalbumin challenge by hematoxylin eosin staining method relative to control; format: functional
Mus musculus [5] = organism: Mus musculus; experiment: Antiasthmatic activity in ovalbumin-sensitized BALB/c mouse allergy model assessed as reduction in peribronchial inflammatory cell infiltration compound treated at 4 g through inhalation prior to ovalbumin challenge by hematoxylin eosin staining method relative to control; format: functional; design: scale not given: the % may be the effect or the level left
Mus musculus [6] = organism: Mus musculus; experiment: Antiasthmatic activity in ovalbumin-sensitized BALB/c mouse allergy model assessed as reduction in epithelial cell mucus metaplasia compound treated at 4 g through inhalation prior to ovalbumin challenge by hematoxylin eosin staining method relative to control; format: functional
Mus musculus [7] = organism: Mus musculus; experiment: Antiasthmatic activity in ovalbumin-sensitized BALB/c mouse allergy model assessed as reduction in perivascular inflammatory cell infiltration compound treated at 4 g through inhalation prior to ovalbumin challenge by hematoxylin eosin staining method relative to control; format: functional; design: scale not given: the % may be the effect or the level left
Mus musculus [8] = organism: Mus musculus; experiment: Antiasthmatic activity in ovalbumin-sensitized BALB/c mouse allergy model assessed as reduction in eosinophil count compound treated at 4 g through inhalation prior to ovalbumin challenge (reference value: 11 /mm3); format: functional
Mus musculus [9] = organism: Mus musculus; experiment: Antiasthmatic activity in ovalbumin-sensitized BALB/c mouse allergy model assessed as reduction in spleen tissue aldehyde level compound treated at 4 g through inhalation prior to ovalbumin challenge; format: functional, organism-based
Mus musculus [10] = organism: Mus musculus; experiment: Antiasthmatic activity in ovalbumin-sensitized BALB/c mouse allergy model assessed as reduction in BAL aldehyde level compound treated at 4 g through inhalation prior to ovalbumin challenge; format: functional, organism-based

Compound: C=C(C)[C@H]1CC=C(C)CC1 [D-LIMONENE]
- Activity (Mus musculus [1]): Active
- Activity (Mus musculus [2]): 29.8 /mm3
- Activity (Mus musculus [3]): 20%
- fold change (FC) (Mus musculus [4]): 2
- Activity (Mus musculus [5]): 40%
- fold change (FC) (Mus musculus [6]): 5
- Activity (Mus musculus [7]): 40%
- Activity (Mus musculus [8]): 12.6 /mm3
- Activity (Mus musculus [9]): Active
- Activity (Mus musculus [10]): Active

Reference: ChEMBL document CHEMBL3351985, “Prophylactic treatment of asthma by an ozone scavenger in a mouse model” (2015)
